Test results taken from the supplement of paper PMC11061612.

Assays:
Carboplatin = compound: C1CC(C1)(C(=O)[O-])C(=O)[O-].N.N.[Pt+2] [Carboplatin]; details: max 10 µM
Summary of the method: (§1)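 In 1536-well plates, cancer cell lines in 7.5 μl DMEM/F12 or RPMI with 10% FBS spent 24 hours at 37°C and 5% CO2 and were then dosed for 72 hours with final DMSO typically 0.2%. Viability was read by CellTiter-Glo 2.0 luminescence and scaled between blank-well and DMSO-well means. The single-agent IC50 was fitted from dose responses using a logistic curve in a non-linear mixed effects model, and that logistic curve had two parameters.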

AZD5363 = compound: C1CN(CCC1(C(=O)N[C@@H](CCO)C2=CC=C(C=C2)Cl)N)C3=NC=NC4=C3C=CN4 [AZD5363]; details: max 10 µM
Summary of the method: as §1

AZD1775 = compound: C=CCn1c(=O)c2cnc(Nc3ccc(N4CCN(C)CC4)cc3)nc2n1-c1cccc(C(C)(C)O)n1 [AZD1775]; details: max 3 µM
Summary of the method: as §1

Trametinib = compound: CC(=O)Nc1cccc(-n2c(=O)n(C3CC3)c(=O)c3c(Nc4ccc(I)cc4F)n(C)c(=O)c(C)c32)c1 [Trametinib]; details: max 1 µM
Summary of the method: as §1

Paclitaxel = compound: CC(=O)O[C@H]1C(=O)[C@@]2(C)[C@H]([C@H](OC(=O)c3ccccc3)[C@]3(O)C[C@H](OC(=O)[C@H](O)[C@@H](NC(=O)c4ccccc4)c4ccccc4)C(C)=C1C3(C)C)[C@]1(OC(C)=O)CO[C@@H]1C[C@@H]2O [Paclitaxel]; details: max 3 µM
Summary of the method: as §1

Palbociclib = compound: CC(=O)c1c(C)c2cnc(Nc3ccc(N4CCNCC4)cn3)nc2n(C2CCCC2)c1=O [Palbociclib]; details: max 10 µM
Summary of the method: as §1

AZD1390 = compound: CC(C)n1c(=O)n(C)c2cnc3cc(F)c(-c4ccc(OCCCN5CCCCC5)nc4)cc3c21 [AZD1390]; details: max 0.3 µM
Summary of the method: as §1

Venetoclax = compound: CC1(C)CCC(CN2CCN(c3ccc(C(=O)NS(=O)(=O)c4ccc(NCC5CCOCC5)c([N+](=O)[O-])c4)c(Oc4cnc5[nH]ccc5c4)c3)CC2)=C(c2ccc(Cl)cc2)C1 [Venetoclax]; details: max 1 µM
Summary of the method: as §1

Dasatinib = compound: CC1=C(C(=CC=C1)Cl)NC(=O)C2=CN=C(S2)NC3=CC(=NC(=N3)C)N4CCN(CC4)CCO [Dasatinib]; details: max 2 µM
Summary of the method: as §1

SG3199 = compound: CC1=CN2[C@@H](C1)C=NC3=CC(=C(C=C3C2=O)OC)OCCCCCOC4=C(C=C5C(=C4)N=C[C@@H]6CC(=CN6C5=O)C)OC [SG3199]; details: max 0.001 µM
Summary of the method: as §1

AZD2811 = compound: CCN(CCO)CCCOc1ccc2c(Nc3cc(CC(=O)Nc4cccc(F)c4)[nH]n3)ncnc2c1 [AZD2811]; details: max 1 µM
Summary of the method: as §1

SN-38 = compound: CCc1c2c(nc3ccc(O)cc13)-c1cc3c(c(=O)n1C2)COC(=O)[C@]3(O)CC [SN-38]; details: max 0.3 µM
Summary of the method: as §1

AZD0156 = compound: CN(C)CCCOc1ccc(-c2ccc3ncc4c(c3c2)n(C2CCOCC2)c(=O)n4C)cn1 [AZD0156]; details: max 3 µM
Summary of the method: as §1

AZD4320 = compound: CN(CC[C@H](CSC1=CC=CC=C1)NC2=C(C=C(C=C2)S(=O)(=O)NC(=O)C3=CC=C(C=C3)N4CCC(CC4)[C@H](C5=CC=CC=C5C6=CC=C(C=C6)Cl)O)S(=O)(=O)C(F)(F)F)CCO [AZD4320]; details: max 1 µM
Summary of the method: as §1

Alisertib = compound: COc1cc(Nc2ncc3c(n2)-c2ccc(Cl)cc2C(c2c(F)cccc2OC)=NC3)ccc1C(=O)O [Alisertib]; details: max 10 µM
Summary of the method: as §1

Etoposide = compound: COc1cc([C@@H]2c3cc4c(cc3[C@@H](O[C@@H]3O[C@@H]5CO[C@@H](C)O[C@H]5[C@H](O)[C@H]3O)[C@H]3COC(=O)[C@H]23)OCO4)cc(OC)c1O [Etoposide]; details: max 10 µM
Summary of the method: as §1

Gefitinib = compound: COc1cc2ncnc(Nc3ccc(F)c(Cl)c3)c2cc1OCCCN1CCOCC1 [Gefitinib]; details: max 10 µM
Summary of the method: as §1

Prexasertib = compound: COc1cccc(OCCCN)c1-c1cc(Nc2cnc(C#N)cn2)n[nH]1 [Prexasertib]; details: max 1 µM
Summary of the method: as §1

Doxorubicin = compound: COc1cccc2c1C(=O)c1c(O)c3c(c(O)c1C2=O)C[C@@](O)(C(=O)CO)C[C@@H]3O[C@H]1C[C@H](N)[C@H](O)[C@H](C)O1 [Doxorubicin]; details: max 1 µM
Summary of the method: as §1

AZD5153 = compound: COc1nnc2ccc(N3CCC(c4ccc(OCCN5CCN(C)C(=O)[C@H]5C)cc4)CC3)nn12 [AZD5153]; details: max 1 µM
Summary of the method: as §1

Lapatinib = compound: CS(=O)(=O)CCNCc1ccc(-c2ccc3ncnc(Nc4ccc(OCc5cccc(F)c5)c(Cl)c4)c3c2)o1 [Lapatinib]; details: max 10 µM
Summary of the method: as §1

AZD8186 = compound: C[C@@H](Nc1cc(F)cc(F)c1)c1cc(C(=O)N(C)C)cc2c(=O)cc(N3CCOCC3)oc12 [AZD8186]; details: max 10 µM
Summary of the method: as §1

Crizotinib = compound: C[C@@H](Oc1cc(-c2cnn(C3CCNCC3)c2)cnc1N)c1c(Cl)ccc(F)c1Cl [Crizotinib]; details: max 10 µM
Summary of the method: as §1

Savolitinib = compound: C[C@@H](c1ccc2nccn2c1)n1nnc2ncc(-c3cnn(C)c3)nc21 [Savolitinib]; details: max 1 µM
Summary of the method: as §1

AZD6738 = compound: C[C@@H]1COCCN1C2=NC(=NC(=C2)C3(CC3)[S@](=N)(=O)C)C4=C5C=CNC5=NC=C4 [AZD6738]; details: max 10 µM
Summary of the method: as §1

AZD5991 = compound: Cc1c2c(nn1C)CSCc1cc(n(C)n1)CSc1cc(c3ccccc3c1)OCCCc1c(C(=O)O)n(C)c3c-2c(Cl)ccc13 [AZD5991]; details: max 1 µM
Summary of the method: as §1

AZD7648 = compound: Cc1cc2ncnn2cc1Nc1ncc2c(n1)n(C1CCOCC1)c(=O)n2C [AZD7648]; details: max 10 µM
Summary of the method: as §1

Taselisib = compound: Cc1nc(-c2cn3c(n2)-c2ccc(-c4cnn(C(C)(C)C(N)=O)c4)cc2OCC3)n(C(C)C)n1 [Taselisib]; details: max 10 µM
Summary of the method: as §1

Selumetinib = compound: Cn1cnc2c(F)c(Nc3ccc(Br)cc3Cl)c(C(=O)NOCCO)cc21 [Selumetinib]; details: max 10 µM
Summary of the method: as §1

SRA737 = compound: N#Cc1cnc(Nc2cc(NC[C@H]3CNCCO3)c(C(F)(F)F)cn2)cn1 [SRA737]; details: max 10 µM
Summary of the method: as §1

MK-2206 = compound: NC1(c2ccc(-c3nc4ccn5c(=O)[nH]nc5c4cc3-c3ccccc3)cc2)CCC1 [MK-2206]; details: max 10 µM
Summary of the method: as §1

Gemcitabine = compound: Nc1ccn([C@@H]2O[C@H](CO)[C@@H](O)C2(F)F)c(=O)n1 [Gemcitabine]; details: max 0.3 µM
Summary of the method: as §1

[1] = compound: O=C(Nc1ccc2[nH]nc(-c3ccncc3)c2c1)[C@@H]1CCN(CC(=O)N2CCN(c3ccc(-c4ncccn4)cc3)CC2)C1; details: max 5 µM
Summary of the method: as §1

Olaparib = compound: O=C(c1cc(Cc2n[nH]c(=O)c3ccccc23)ccc1F)N1CCN(C(=O)C2CC2)CC1 [Olaparib]; details: max 10 µM
Summary of the method: as §1

5-Fluorouracil = compound: O=c1[nH]cc(F)c(=O)[nH]1 [5-Fluorouracil]; details: max 20 µM
Summary of the method: as §1

## SW1463 (Colorectal Carcinoma)
Carboplatin
  IC50, cell viability 72 h: > 10 µM
AZD5363
  IC50, cell viability 72 h: > 10 µM
AZD1775
  IC50, cell viability 72 h: > 3 µM
Trametinib
  IC50, cell viability 72 h: 0.0784 µM
Paclitaxel
  IC50, cell viability 72 h: > 3 µM
Palbociclib
  IC50, cell viability 72 h: 7.12 µM
AZD1390
  IC50, cell viability 72 h: > 0.3 µM
Venetoclax
  IC50, cell viability 72 h: > 1 µM
Dasatinib
  IC50, cell viability 72 h: > 2 µM
SG3199
  IC50, cell viability 72 h: > 0.001 µM
AZD2811
  IC50, cell viability 72 h: > 1 µM
SN-38
  IC50, cell viability 72 h: > 0.3 µM
AZD0156
  IC50, cell viability 72 h: > 3 µM
AZD4320
  IC50, cell viability 72 h: > 1 µM
Alisertib
  IC50, cell viability 72 h: > 10 µM
Etoposide
  IC50, cell viability 72 h: > 10 µM
Gefitinib
  IC50, cell viability 72 h: 3.27 µM
Prexasertib
  IC50, cell viability 72 h: 0.288 µM
Doxorubicin
  IC50, cell viability 72 h: > 1 µM
AZD5153
  IC50, cell viability 72 h: > 1 µM
Lapatinib
  IC50, cell viability 72 h: > 10 µM
AZD8186
  IC50, cell viability 72 h: > 10 µM
Crizotinib
  IC50, cell viability 72 h: > 10 µM
Savolitinib
  IC50, cell viability 72 h: > 1 µM
AZD6738
  IC50, cell viability 72 h: > 10 µM
AZD5991
  IC50, cell viability 72 h: > 1 µM
AZD7648
  IC50, cell viability 72 h: > 10 µM
Taselisib
  IC50, cell viability 72 h: > 10 µM
Selumetinib
  IC50, cell viability 72 h: 4.95 µM
SRA737
  IC50, cell viability 72 h: > 10 µM
MK-2206
  IC50, cell viability 72 h: > 10 µM
Gemcitabine
  IC50, cell viability 72 h: > 0.3 µM
[1]
  IC50, cell viability 72 h: > 5 µM
Olaparib
  IC50, cell viability 72 h: > 10 µM
5-Fluorouracil
  IC50, cell viability 72 h: > 20 µM
